What all share (format): organism-based
In data set [1] the test system is Phaseolus vulgaris. Put plainly: Toxicity in Phaseolus vulgaris (dry bean) assessed as yield at 280 to 560 g a.i. ha'-1. To be noted: in vivo.
For data set [2], the system named is Phaseolus vulgaris. Nature of the data set: Toxicity in Phaseolus vulgaris (dry bean)assessed as visible injury on leaves at 280 to 560 g a.i. ha'-1 after 14 days. To be noted: in vivo, 336 h.
Data set [3] has as its system Phaseolus vulgaris. Nature of the data set: Toxicity in Phaseolus vulgaris (kidney dry bean) assessed as visible injury on leaves at recommended dose treated at pre-plant incorporated application after 14 days. The settings on record: in vivo, other, 336 h.
For data set [4], the system named is Phaseolus vulgaris. Put plainly: Toxicity in Phaseolus vulgaris (cranberry dry bean) assessed as visible injury on leaves at 2 times recommended dose treated at pre-emergence application after 14 days. To be noted: in vivo, other, 336 h.
Data set [5] concerns Phaseolus vulgaris. Put plainly: Toxicity in Phaseolus vulgaris (cranberry dry bean) assessed as visible injury on leaves at recommended dose treated at pre-plant incorporated application after 14 days. The settings on record: in vivo, other, 336 h.
Data set [6] has as its system Phaseolus vulgaris. Nature of the data set: Toxicity in Phaseolus vulgaris (kidney dry bean) assessed as visible injury on leaves at 2 times recommended dose treated at pre-plant incorporated application after 14 days. The settings on record: in vivo, other, 336 h.
Data set [7] relates to Phaseolus vulgaris. Put plainly: Toxicity in Phaseolus vulgaris (white dry bean) assessed as visible injury on leaves at recommended dose treated at pre-plant incorporated application after 14 days. To be noted: in vivo, other, 336 h.
Data set [8] concerns Phaseolus vulgaris. Nature of the data set: Toxicity in Phaseolus vulgaris (cranberry dry bean) assessed as visible injury on leaves at 2 times recommended dose treated at pre-plant incorporated application after 14 days. To be noted: in vivo, other, 336 h.
Data set [9] deals with Phaseolus vulgaris. Put plainly: Toxicity in Phaseolus vulgaris (white dry bean) assessed as visible injury on leaves at 2 times recommended dose treated at pre-plant incorporated application after 14 days. The settings on record: in vivo, other, 336 h.
The test system of data set [10] is Phaseolus vulgaris. Nature of the data set: Toxicity in Phaseolus vulgaris (dry bean) assessed as plant height at 280 to 560 g a.i. ha'-1. To be noted: in vivo.
In data set [11] the test system is Phaseolus vulgaris. Put plainly: Toxicity in Phaseolus vulgaris (kidney dry bean) assessed as visible injury on leaves at recommended dose treated at pre-emergence application after 14 days. To be noted: in vivo, other, 336 h.
The subject of data set [12] is Phaseolus vulgaris. Put plainly: Toxicity in Phaseolus vulgaris (black dry bean) assessed as visible injury on leaves at recommended dose treated at pre-plant incorporated application after 14 days. To be noted: in vivo, other, 336 h.
The subject of data set [13] is Phaseolus vulgaris. Put plainly: Toxicity in Phaseolus vulgaris (kidney dry bean) assessed as visible injury on leaves at 2 times recommended dose treated at pre-emergence application after 14 days. The settings on record: in vivo, other, 336 h.
Data set [14] relates to Phaseolus vulgaris. Nature of the data set: Toxicity in Phaseolus vulgaris (black dry bean) assessed as visible injury on leaves at recommended dose treated at pre-emergence application after 14 days. To be noted: in vivo, other, 336 h.
Data set [15] relates to Phaseolus vulgaris. Put plainly: Toxicity in Phaseolus vulgaris (black dry bean) assessed as visible injury on leaves at 2 times recommended dose treated at pre-plant incorporated application after 14 days. The settings on record: in vivo, other, 336 h.
Data set [16] concerns Phaseolus vulgaris. Put plainly: Toxicity in Phaseolus vulgaris (white dry bean) assessed as visible injury on leaves at recommended dose treated at pre-emergence application after 14 days. To be noted: in vivo, other, 336 h.
Data set [17] relates to Phaseolus vulgaris. Nature of the data set: Toxicity in Phaseolus vulgaris (white dry bean) assessed as visible injury on leaves at 2 times recommended dose treated at pre-emergence application after 14 days. The settings on record: in vivo, other, 336 h.
The test system of data set [18] is Phaseolus vulgaris. Put plainly: Toxicity in Phaseolus vulgaris (dry bean) assessed as visible injury on leaves at 280 to 560 g a.i. ha'-1 after 28 days. The settings on record: in vivo, 672 h.
In data set [19] the test system is Phaseolus vulgaris. Put plainly: Toxicity in Phaseolus vulgaris (dry bean) assessed as shoot dry weight per row at 280 to 560 g a.i. ha'-1. The settings on record: in vivo.
The subject of data set [20] is Phaseolus vulgaris. Put plainly: Toxicity in Phaseolus vulgaris (cranberry dry bean) assessed as visible injury on leaves at recommended dose treated at pre-emergence application after 14 days. To be noted: in vivo, other, 336 h.
The test system of data set [21] is Phaseolus vulgaris. Put plainly: Toxicity in Phaseolus vulgaris (black dry bean) assessed as visible injury on leaves at 2 times recommended dose treated at pre-emergence application after 14 days. To be noted: in vivo, other, 336 h.
The subject of data set [22] is Phaseolus vulgaris. Nature of the data set: Toxicity in Phaseolus vulgaris (dry bean)assessed as visible injury on leaves at 280 to 560 g a.i. ha'-1 after 7 days. To be noted: in vivo, 168 h.
Data set [23] deals with Phaseolus vulgaris. Nature of the data set: Toxicity in Phaseolus vulgaris (dry bean) assessed as visible injury on leaves at 1373 to 2746 g a.i. ha'-1 after 7 days. To be noted: in vivo, 168 h.
Data set [24] relates to Phaseolus vulgaris. Put plainly: Toxicity in Phaseolus vulgaris (dry bean) assessed as visible injury on leaves at 1373 to 2746 g a.i. ha'-1 after 14 days. The settings on record: in vivo, 336 h.
The test system of data set [25] is Phaseolus vulgaris. Put plainly: Toxicity in Phaseolus vulgaris (dry bean) assessed as visible injury on leaves at 1373 to 2746 g a.i. ha'-1 after 28 days. The settings on record: in vivo, 672 h.
Data set [26] relates to Phaseolus vulgaris. Nature of the data set: Toxicity in Phaseolus vulgaris (dry bean) assessed as yield at 1373 to 2746 g a.i. ha'-1. To be noted: in vivo.
The subject of data set [27] is Phaseolus vulgaris. Nature of the data set: Toxicity in Phaseolus vulgaris (dry bean) assessed as plant height at 1373 to 2746 g a.i. ha'-1. To be noted: in vivo.
The test system of data set [28] is Phaseolus vulgaris. Put plainly: Toxicity in Phaseolus vulgaris (dry bean) assessed as shoot dry weight per row at 1373 to 2746 g a.i. ha'-1. The settings on record: in vivo.

On to `CS(=O)(=O)NC(=O)c1cc(Oc2ccc(C(F)(F)F)cc2Cl)ccc1[N+](=O)[O-]` [FOMESAFEN], for which the Crop_yield with Phaseolus vulgaris [1] amounted to 2.4 tons/ha. Moreover, the Activity in the data set with Phaseolus vulgaris [2] amounted to 0.2%; in the data set on Phaseolus vulgaris [3] it was 0.3%; with Phaseolus vulgaris [4], 0%; in the data set with Phaseolus vulgaris [5] it was 0.1%; in the data set on Phaseolus vulgaris [6], 0.2%; with Phaseolus vulgaris [7] it was 0.5%. The Activity amounted to 0% in the data set on Phaseolus vulgaris [8]; 0.2% in the data set on Phaseolus vulgaris [9]; 49 cm in the data set with Phaseolus vulgaris [10]; 0% with Phaseolus vulgaris [11]; 0.8% in the data set with Phaseolus vulgaris [12]; 0.2% with Phaseolus vulgaris [13]. The Activity turned out to be 1% in the data set on Phaseolus vulgaris [14]; 0.5% in the data set on Phaseolus vulgaris [15]; 0.1% in the data set on Phaseolus vulgaris [16]; 0.4% in the data set with Phaseolus vulgaris [17]; 0% in the data set with Phaseolus vulgaris [18]; 40 g with Phaseolus vulgaris [19]. Also, the Activity in the data set on Phaseolus vulgaris [20] amounted to 0%; with Phaseolus vulgaris [21], 1.2%; in the data set with Phaseolus vulgaris [22] it was 0.2%.
For the compound `CCc1cccc(C)c1N(C(=O)CCl)[C@@H](C)COC` [S-METOLACHLOR], the Activity with Phaseolus vulgaris [3] was 0.1%; in the data set with Phaseolus vulgaris [23], 0.7%; with Phaseolus vulgaris [4] it was 0.1%; with Phaseolus vulgaris [5], 0.1%; in the data set on Phaseolus vulgaris [24], 1%; in the data set on Phaseolus vulgaris [25] it was 0.2%. Moreover, the Activity in the data set on Phaseolus vulgaris [6] is 0.7%; in the data set on Phaseolus vulgaris [7], 0.5%; in the data set with Phaseolus vulgaris [8] it was 0.2%; with Phaseolus vulgaris [9] it was 1.6%; in the data set on Phaseolus vulgaris [11] it was 0%; with Phaseolus vulgaris [27], 49 cm. In addition, the Activity is given as 0.9% in the data set on Phaseolus vulgaris [12]; 0.1% with Phaseolus vulgaris [13]; 3.4% with Phaseolus vulgaris [14]; 0.7% with Phaseolus vulgaris [15]; 4.2% with Phaseolus vulgaris [16]; 6.6% in the data set with Phaseolus vulgaris [17]. Besides, the Activity in the data set with Phaseolus vulgaris [28] came out at 39 g; in the data set on Phaseolus vulgaris [20], 0%; in the data set on Phaseolus vulgaris [21] it was 5.5%. Besides, in the data set with Phaseolus vulgaris [26], the Crop_yield turned out to be 2.4 tons/ha.
